{"source": "patent US12427144B2", "about": "“Compounds and methods for the targeted degradation of androgen receptor” (Arvinas Operations, Inc., priority 2019, dated 2025)", "target": "T1, Androgen Receptor (AR) (Homo sapiens, UniProt P10275)", "T1 construct": "endogenous in cells; host or cells: VCaP", "T1 sequence (P10275 1-920)": "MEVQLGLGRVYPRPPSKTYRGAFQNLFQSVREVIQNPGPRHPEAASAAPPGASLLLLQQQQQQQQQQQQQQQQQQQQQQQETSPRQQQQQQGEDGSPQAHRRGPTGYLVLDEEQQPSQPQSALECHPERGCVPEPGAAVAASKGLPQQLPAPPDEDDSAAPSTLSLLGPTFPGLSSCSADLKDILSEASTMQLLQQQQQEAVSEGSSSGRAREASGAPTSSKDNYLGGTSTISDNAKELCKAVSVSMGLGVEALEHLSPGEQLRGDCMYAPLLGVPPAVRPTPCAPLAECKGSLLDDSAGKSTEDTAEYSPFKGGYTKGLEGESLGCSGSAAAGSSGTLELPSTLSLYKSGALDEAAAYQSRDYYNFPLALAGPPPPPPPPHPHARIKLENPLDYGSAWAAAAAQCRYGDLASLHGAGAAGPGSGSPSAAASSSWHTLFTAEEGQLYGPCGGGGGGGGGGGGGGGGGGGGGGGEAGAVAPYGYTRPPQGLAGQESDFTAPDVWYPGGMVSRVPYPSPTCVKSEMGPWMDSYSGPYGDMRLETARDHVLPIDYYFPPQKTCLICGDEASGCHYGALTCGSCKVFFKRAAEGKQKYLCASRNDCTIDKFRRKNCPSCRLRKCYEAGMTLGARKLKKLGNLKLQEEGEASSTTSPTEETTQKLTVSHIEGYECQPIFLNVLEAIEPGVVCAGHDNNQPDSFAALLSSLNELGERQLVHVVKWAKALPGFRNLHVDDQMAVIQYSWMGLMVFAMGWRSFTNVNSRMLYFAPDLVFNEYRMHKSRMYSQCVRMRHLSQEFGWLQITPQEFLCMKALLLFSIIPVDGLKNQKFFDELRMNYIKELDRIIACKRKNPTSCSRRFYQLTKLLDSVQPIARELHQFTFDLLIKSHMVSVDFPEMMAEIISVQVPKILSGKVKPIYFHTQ", "test": "AR immunofluorescence staining, high content imager, VCaP cells", "assay_type": "cell-based", "conditions": "for DC50: AR degradation by immunofluorescence; for Dmax: maximal AR degradation", "experimental": "AR Immunofluorescence Staining of Cells for the High Content Imager was performed as follows: Following treatment of the cells with compound (using the central 60 wells of a 96-well plate), media was removed by aspiration, followed by addition of 50 μL per well of 4% paraformaldehyde (PFA) in PBS supplemented with 2 mM MgCl2 and 2 mM CaCl2. Fixed cells were incubated at RT for 15 minutes. For particularly low adherence cell lines (e.g., VCaP), a 2× solution of 8% PFA was added directly to wells instead. Cells were washed once with 200 μL PBS/well. To permeabilize cells 50 μL/well of 0.1% Triton X-100 in PBS was added and incubated for 5 minutes. Cells were washed once with 200 μL PBSS/well. 100 μL/well of Licor Odyssey Blocking Buffer was added for 1 hour at 20° C. Wells were aspirated and AR antibody (1:1000 in Licor Odyssey blocking buffer; 50 μL/well; CST 5153s) was added. Plates were incubated overnight at 4° C. Plates were washed 3 times with 200 EL PBS/well. The appropriate secondary antibody was added (50 μL/well; diluted in Licor Odyssey blocking buffer) and incubated for 1 hour at RT in the dark as prepared below using Anti-rabbit FITC (1:5000; […]) and Phalloidin-Alexafluor 648 (1:500; […]). Cells were washed once with 200 μL PBS/well. 50 μL DAPI or Hoechst 33342 diluted 1:1000 in Licor Odyssey blocking buffer was added to the wells. Cells were washed 3 times with 200 μL PBS/well. The plates were covered with a clear plastic sealer and refrigerated in the dark until ready to analyze. The cells were analyzed using a Molecular Devices IXM high content imager and analyzed using Molecular Devices metaXpress software suite.", "data": [{"smiles": "N#Cc1ccc(O[C@H]2CC[C@H](NC(=O)c3ccc(N4CCC(CN5CCN(c6ccc(C(=O)NC7CCC(=O)NC7=O)nn6)CC5)CC4)nn3)CC2)cc1Cl", "note": "(stereo partly shown) [Compound 28, N-[4-(3-chloro-4-cyano-phenoxy)cyclohexyl]-6-[4-[[4-[6-[(2,6-dioxo-3-piperidyl)carbamoyl]pyridazin-3-yl]piperazin-1-yl]methyl]-1-piperidyl]pyridazine-3-carboxamide]", "values": [{"measurement": "DC50", "value": "< 1", "unit": "nM"}, {"measurement": "Dmax", "value": "≥ 70", "unit": "%"}]}, {"smiles": "N#Cc1ccc(O[C@H]2CC[C@H](NC(=O)c3ccc(N4CCC(CN5CCN(c6cccc(C(=O)NC7CCC(=O)NC7=O)c6)CC5)CC4)nn3)CC2)cc1Cl", "note": "(stereo partly drawn) [Compound 29, N-((1R,4R)-4-(3-chloro-4-cyanophenoxy)cyclohexyl)-6-(4-((4-(3-((2,6-dioxopiperidin-3-yl)carbamoyl)phenyl)piperazin-1-yl)methyl)piperidin-1-yl)pyridazine-3-carboxamide]", "values": [{"measurement": "DC50", "value": "< 1", "unit": "nM"}, {"measurement": "Dmax", "value": "< 50", "unit": "%"}]}, {"smiles": "N#Cc1ccc(O[C@H]2CC[C@H](NC(=O)c3ccc(N4CCC(CN5CCN(c6ccc(C(=O)NC7CCC(=O)NC7=O)cn6)CC5)CC4)nn3)CC2)cc1Cl", "note": "(stereo partly drawn) [Compound 30, N-((1R,4R)-4-(3-chloro-4-cyanophenoxy)cyclohexyl)-6-(4-((4-(5-((2,6-dioxopiperidin-3-yl)carbamoyl)pyridin-2-yl)piperazin-1-yl)methyl)piperidin-1-yl)pyridazine-3-carboxamide]", "values": [{"measurement": "DC50", "value": "< 1", "unit": "nM"}, {"measurement": "Dmax", "value": "≥ 70", "unit": "%"}]}, {"smiles": "CN(C(=O)c1ccc(N2CCN(CC3CCN(c4ccc(C(=O)N[C@H]5CC[C@H](Oc6ccc(C#N)c(Cl)c6)CC5)nn4)CC3)CC2)cc1F)C1CCC(=O)NC1=O", "note": "(stereo partly drawn) [Compound 31, N-((1R,4R)-4-(3-chloro-4-cyanophenoxy)cyclohexyl)-6-(4-((4-(4-((2,6-dioxopiperidin-3-yl)(methyl)carbamoyl)-3-fluorophenyl)piperazin-1-yl)methyl)piperidin-1-yl)pyridazine-3-carboxamide]", "values": [{"measurement": "DC50", "value": "< 1", "unit": "nM"}, {"measurement": "Dmax", "value": "50 to 70", "unit": "%"}]}, {"smiles": "CCN(C(=O)c1ccc(N2CCN(CC3CCN(c4ccc(C(=O)N[C@H]5CC[C@H](Oc6ccc(C#N)c(Cl)c6)CC5)nn4)CC3)CC2)cc1)C1CCC(=O)NC1=O", "note": "(stereo partly drawn) [Compound 32, N-((1R,4R)-4-(3-chloro-4-cyanophenoxy)cyclohexyl)-6-(4-((4-(4-((2,6-dioxopiperidin-3-yl)(ethyl)carbamoyl)phenyl)piperazin-1-yl)methyl)piperidin-1-yl)pyridazine-3-carboxamide]", "values": [{"measurement": "DC50", "value": "≥ 100", "unit": "nM"}, {"measurement": "Dmax", "value": "< 50", "unit": "%"}]}, {"smiles": "Cc1cc(O[C@H]2C(C)(C)[C@H](NC(=O)c3ccc(N4CCC(CN5CCN(c6cnc(C(=O)N[C@H]7CCC(=O)NC7=O)cn6)CC5)CC4)cc3)C2(C)C)cc(C)c1C#N", "note": "[Compound 33, 5-[4-[[1-[4-[[3-(4-cyano-3,5-dimethyl-phenoxy)-2,2,4,4-tetramethyl-cyclobutyl]carbamoyl]phenyl]-4-piperidyl]methyl]piperazin-1-yl]-N-[(3S)-2,6-dioxo-3-piperidyl]pyrazine-2-carboxamide]", "values": [{"measurement": "DC50", "value": "< 1", "unit": "nM"}, {"measurement": "Dmax", "value": "≥ 70", "unit": "%"}]}, {"smiles": "COc1cc(O[C@H]2C(C)(C)[C@H](NC(=O)c3ccc(N4CCC5(CC4)CN([C@H]4C[C@H](Oc6ccc(C(=O)N[C@H]7CCC(=O)NC7=O)c(OC)c6)C4)CCO5)cc3)C2(C)C)ccc1C#N", "note": "[Compound 34, 4-[3-[9-[4-[[3-(4-cyano-3-methoxy-phenoxy)-2,2,4,4-tetramethyl-cyclobutyl]carbamoyl]phenyl]-1-oxa-4,9-diazaspiro[5.5]undecan-4-yl]cyclobutoxy]-N-[(3S)-2,6-dioxo-3-piperidyl]-2-methoxy-benzamide]", "values": [{"measurement": "DC50", "value": "< 1", "unit": "nM"}, {"measurement": "Dmax", "value": "≥ 70", "unit": "%"}]}, {"smiles": "COc1cc(O[C@H]2C[C@H](N3CCOC4(CCN(c5ccc(C(=O)N[C@H]6C(C)(C)[C@H](Oc7cc(C)c(C#N)c(C)c7)C6(C)C)cc5)CC4)C3)C2)ccc1C(=O)N[C@H]1CCC(=O)NC1=O", "note": "[Compound 35, 4-[3-[9-[4-[[3-(4-cyano-3,5-dimethyl-phenoxy)-2,2,4,4-tetramethyl-cyclobutyl]carbamoyl]phenyl]-1-oxa-4,9-diazaspiro[5.5]undecan-4-yl]cyclobutoxy]-N-[(3S)-2,6-dioxo-3-piperidyl]-2-methoxy-benzamide]", "values": [{"measurement": "DC50", "value": "< 1", "unit": "nM"}, {"measurement": "Dmax", "value": "≥ 70", "unit": "%"}]}, {"smiles": "CC1(C)[C@H](NC(=O)c2ccc(C#CC3CCN(C4CCN(c5ccc(C(=O)N[C@H]6CCC(=O)NC6=O)c(F)c5)CC4)CC3)cc2)C(C)(C)[C@H]1Oc1ccc(C#N)c(Cl)c1", "note": "[Compound 36, N-[(3S)-2,6-dioxopiperidin-3-yl]-2-fluoro-4-{4-[2-(4-{[(1r,3r)-3-(3-chloro-4-cyanophenoxy)-2,2,4,4-tetramethylcyclobutyl]carbamoyl}phenyl)ethynyl]-[1,4′-bipiperidin]-1′-yl}benzamide]", "values": [{"measurement": "DC50", "value": "< 1", "unit": "nM"}, {"measurement": "Dmax", "value": "≥ 70", "unit": "%"}]}, {"smiles": "COc1cc(O[C@H]2C(C)(C)[C@H](NC(=O)c3ccc(N4CCC(CN5CCN(c6cnc(C(=O)N[C@H]7CCC(=O)NC7=O)cn6)CC5)CC4)cc3)C2(C)C)ccc1C#N", "note": "[Compound 37, 5-[4-[[1-[4-[[3-(4-cyano-3-methoxy-phenoxy)-2,2,4,4-tetramethyl-cyclobutyl]carbamoyl]phenyl]-4-piperidyl]methyl]piperazin-1-yl]-N-[(3S)-2,6-dioxo-3-piperidyl]pyrazine-2-carboxamide]", "values": [{"measurement": "DC50", "value": "< 1", "unit": "nM"}, {"measurement": "Dmax", "value": "≥ 70", "unit": "%"}]}, {"smiles": "COc1cc(O[C@H]2C(C)(C)[C@H](NC(=O)c3ccc(N4CCC(CN5CCN(c6cnc(C(=O)N[C@H]7CCC(=O)NC7=O)nc6)CC5)CC4)cc3)C2(C)C)ccc1C#N", "note": "[Compound 39, 5-(4-((1-(4-(((1r,3r)-3-(4-cyano-3-methoxyphenoxy)-2,2,4,4-tetramethylcyclobutyl)carbamoyl)phenyl)piperidin-4-yl)methyl)piperazin-1-yl)-N—((S)-2,6-dioxopiperidin-3-yl)pyrimidine-2-carboxamide]", "values": [{"measurement": "DC50", "value": "< 1", "unit": "nM"}, {"measurement": "Dmax", "value": "≥ 70", "unit": "%"}]}, {"smiles": "COc1cc(O[C@H]2C(C)(C)[C@H](NC(=O)c3ccc(N4CCC(CN5CCN(c6ccc(C(=O)N[C@H]7CCC(=O)NC7=O)nc6)CC5)CC4)cc3)C2(C)C)ccc1C#N", "note": "[Compound 40, 5-[4-[[1-[4-[[3-(4-cyano-3-methoxy-phenoxy)-2,2,4,4-tetramethyl-cyclobutyl]carbamoyl]phenyl]-4-piperidyl]methyl]piperazin-1-yl]-N-[(3S)-2,6-dioxo-3-piperidyl]pyridine-2-carboxamide]", "values": [{"measurement": "DC50", "value": "< 1", "unit": "nM"}, {"measurement": "Dmax", "value": "≥ 70", "unit": "%"}]}, {"smiles": "Cc1cc(O[C@H]2C(C)(C)[C@H](NC(=O)c3ccc(N4CCC(CN5CCN(c6ccc(C(=O)N[C@H]7CCC(=O)NC7=O)nc6)CC5)CC4)cc3)C2(C)C)cc(C)c1C#N", "note": "[Compound 41, 5-[4-[[1-[4-[[3-(4-cyano-3,5-dimethyl-phenoxy)-2,2,4,4-tetramethyl-cyclobutyl]carbamoyl]phenyl]-4-piperidyl]methyl]piperazin-1-yl]-N-[(3S)-2,6-dioxo-3-piperidyl]pyridine-2-carboxamide]", "values": [{"measurement": "DC50", "value": "< 1", "unit": "nM"}, {"measurement": "Dmax", "value": "≥ 70", "unit": "%"}]}, {"smiles": "COc1cc(O[C@H]2C(C)(C)[C@H](NC(=O)c3ccc(N4CCC(CN5CCN(c6ccc(C(=O)N[C@H]7CCC(=O)NC7=O)cn6)CC5)CC4)cc3)C2(C)C)ccc1C#N", "note": "[Compound 42, N-[(3S)-2,6-dioxopiperidin-3-yl]-6-(4-{[1-(4-{[(1r,3r)-3-(4-cyano-3-methoxyphenoxy)-2,2,4,4-tetramethylcyclobutyl]carbamoyl}phenyl)piperidin-4-yl]methyl}piperazin-1-yl)pyridine-3-carboxamide]", "values": [{"measurement": "DC50", "value": "< 1", "unit": "nM"}, {"measurement": "Dmax", "value": "≥ 70", "unit": "%"}]}]}
